Reference: BindingDB's records for doi:10.3109/14756366.2010.510471 (Suven Life Sciences, 2011)

Legend:
[1] = target: 5-hydroxytryptamine receptor 6 (Homo sapiens, UniProt P50406); test: Radioligand Binding Assay; conditions: pH 7.4; 37 °C
Experimental: Briefly, receptor source and radioligand used were human recombinant expressed in HEK-293 cells and [3H] LSD (60–80 Ci/mmol), respectively. The final ligand concentration was 1.5 nM and non-specific determinant was methiothepin mesylate (0.1 μM). The reference compound and positive control was methiothepin mesylate. Reactions were carried out in 50 mM TRISHCl (pH 7.4) containing 10 mM MgCl2, 0.5 mM EDTA for 60 min at 37 °C. The reaction was terminated by rapid vacuum filtration onto glass fibre filters.

Cytochrome P450 3A4 = Cytochrome P450 3A4 (Homo sapiens, UniProt P08684); test: Isoform-Selective Assay
Cytochrome P450 3A4, sequence (P08684 whole entry, canonical isoform): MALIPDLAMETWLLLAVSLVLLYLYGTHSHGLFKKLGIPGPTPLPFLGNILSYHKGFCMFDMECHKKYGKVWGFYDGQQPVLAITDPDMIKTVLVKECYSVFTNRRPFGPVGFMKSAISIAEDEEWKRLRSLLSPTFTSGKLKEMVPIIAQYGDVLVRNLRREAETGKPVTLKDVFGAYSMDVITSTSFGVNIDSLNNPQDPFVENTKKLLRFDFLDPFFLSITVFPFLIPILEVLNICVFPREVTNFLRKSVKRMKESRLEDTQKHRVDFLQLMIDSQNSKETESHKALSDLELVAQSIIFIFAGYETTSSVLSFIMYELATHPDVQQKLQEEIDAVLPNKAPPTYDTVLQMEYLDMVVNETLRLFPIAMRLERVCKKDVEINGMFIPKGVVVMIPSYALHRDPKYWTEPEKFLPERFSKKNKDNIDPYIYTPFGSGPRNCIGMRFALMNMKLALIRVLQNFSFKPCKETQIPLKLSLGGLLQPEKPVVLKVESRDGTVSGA
Experimental: (§1) The cytochrome P450 inhibitory potential was determined using isoform-selective assays and heterologously expressed human CYP2D6 and CYP3A4.

Cytochrome P450 2D6 = Cytochrome P450 2D6 (Homo sapiens, UniProt P10635); test: Isoform-Selective Assay
Cytochrome P450 2D6, sequence (P10635 whole entry, canonical isoform): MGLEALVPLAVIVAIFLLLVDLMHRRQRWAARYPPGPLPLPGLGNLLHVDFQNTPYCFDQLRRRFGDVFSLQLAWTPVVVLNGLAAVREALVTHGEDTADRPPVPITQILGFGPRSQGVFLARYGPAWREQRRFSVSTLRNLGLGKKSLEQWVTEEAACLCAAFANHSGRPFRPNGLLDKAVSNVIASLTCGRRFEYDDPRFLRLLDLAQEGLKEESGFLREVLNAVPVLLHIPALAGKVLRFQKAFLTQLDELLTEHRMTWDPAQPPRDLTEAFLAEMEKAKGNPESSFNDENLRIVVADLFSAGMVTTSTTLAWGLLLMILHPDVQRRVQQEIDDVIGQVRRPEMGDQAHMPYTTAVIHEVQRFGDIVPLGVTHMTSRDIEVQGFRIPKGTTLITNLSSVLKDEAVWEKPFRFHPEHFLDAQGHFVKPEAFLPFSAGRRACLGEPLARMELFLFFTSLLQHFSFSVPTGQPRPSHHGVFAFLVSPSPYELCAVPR
Experimental: as §1

5-hydroxytryptamine receptor 6, sequence (P50406 whole entry): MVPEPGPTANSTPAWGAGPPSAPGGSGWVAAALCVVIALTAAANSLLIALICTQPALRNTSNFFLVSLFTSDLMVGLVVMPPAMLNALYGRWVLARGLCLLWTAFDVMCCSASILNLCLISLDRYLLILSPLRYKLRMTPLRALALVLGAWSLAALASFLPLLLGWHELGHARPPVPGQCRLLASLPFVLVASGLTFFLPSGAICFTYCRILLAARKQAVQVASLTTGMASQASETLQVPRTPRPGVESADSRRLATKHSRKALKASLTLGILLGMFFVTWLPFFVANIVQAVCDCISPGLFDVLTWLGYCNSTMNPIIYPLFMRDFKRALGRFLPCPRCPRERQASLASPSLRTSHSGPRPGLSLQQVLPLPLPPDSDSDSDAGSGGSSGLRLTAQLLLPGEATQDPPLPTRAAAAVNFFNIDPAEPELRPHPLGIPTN

| Ki [1] | IC50 (Cytochrome P450 3A4) | IC50 (Cytochrome P450 2D6) | Compound |
| --- | --- | --- | --- |
| > 0.5 µM |  |  | CN(C)CCOc1c2n(c3cccc(F)c13)S(=O)(=O)c1ccccc1-2 [1-Fluoro-10-(2-N,N-Dimethylaminoethoxy)-5-Thia-4-b-azaindeno [2,1-a]indene-5,5-Dioxide (8o)] |
|  | > 45 µM | 7.65 µM | CN(C)CCOc1c2n(c3ccccc13)S(=O)(=O)c1ccccc1-2 [10-(2-N,N-Dimethylaminoethoxy)-5-Thia-4-b-azaindeno[2,1-a]indene-5,5-Dioxide (8a)] |
| 0.464 µM |  |  | CN(C)CCOc1c2n(c3ccc(Cl)cc13)S(=O)(=O)c1ccccc1-2 [2-Chloro-10-(2-N,N-Dimethylaminoethoxy)-5-Thia-4-b-azaindeno[2,1-a]indene-5,5-Dioxide (8c)] |
| 0.127 µM |  |  | COc1ccc2c(c1)c(OCCN(C)C)c1n2S(=O)(=O)c2ccccc2-1 [2-Methoxy-10-(2-N,N-Dimethylaminoethoxy)-5-Thia-4b-azaindeno[2,1-a]indene-5,5-Dioxide (8d)] |
|  | 37.1 µM | 5.06 µM | CN(C)CCOc1c2n(c3cc(Cl)ccc13)S(=O)(=O)c1ccccc1-2 [3-Chloro-10-(2-N,N-Dimethylaminoethoxy)-5-Thia-4-b-azaindeno (8b)] |
